The text below walks through data of patent publication US7067524B2, “Substituted phenyl naphthalenes as estrogenic agents” (Wyeth, priority 2001, dated 2006).

The subject of test [1] is metallothionein-II mRNA in Saos-2 cells. Description: Regulation of metallothionein-II mRNA in Saos-2 cells. It is filed as cell-based. On the set-up: unit not given here. To be noted: column head not given.
The subject of test [2] is Sexually immature 129 SvE mice. Description: Mouse uterotrophic test procedure (Procedure 2). It is filed as in vivo. To be noted: 50 mg/kg/day sc, days 22-25.
Test [3] concerns Progesterone receptor mRNA. Description: Progesterone receptor mRNA regulation in the preoptic area of the rat brain. It is filed as in vivo. To be noted: 30 μg/kg.
The subject of the next test is casein kinase II mRNA. Description: Rat mammotrophic assay (mammary end bud test procedure). Format: in vivo. To be noted: ovariectomized rats, 0.1 mg/kg sc 6 days, with progesterone 30 mg/kg.

Regarding `Oc1ccc(-c2ccc3cc(O)ccc3c2)cc1` [Example 1e, 6-(4-Hydroxyphenyl)-2-naphthol], in test [1], the “Regulation of metallothionein-II mRNA” value came out at 17.0.

In the case of `Oc1ccc(-c2ccc3c(Br)c(O)ccc3c2)cc1` [Example 1o, 1-Bromo-6-(4-hydroxyphenyl)-2-naphthol], the “Regulation of metallothionein-II mRNA” value in test [1] is listed as 5.7.

Turning to `N#Cc1c(O)ccc2cc(-c3ccc(O)cc3)ccc12` [Example 1s, 2-Hydroxy-6-(4-hydroxyphenyl)-1-naphthonitrile], in test [1], the “Regulation of metallothionein-II mRNA” value is given as 4.9.

Take `C[C@]12CC[C@@H]3c4ccc(O)cc4CC[C@H]3[C@@H]1CC[C@@H]2O` [17β-estradiol, reference compound]: the “mean uterine weight (mg) ± SEM” value in test [2] is on record as 45.3 ± 1.9 mg. Besides, the “Progesterone receptor mRNA (arbitrary units; mean ± stdev)” value in test [3] turned out to be 557.1 ± 80.6 arbitrary units. Besides, the “Casein kinase II mRNA/18S rRNA (mean ± SEM)” value with casein kinase II mRNA came out at 39.0 ± 5.4.

In the case of `Oc1ccc(-c2ccc3c(Cl)c(O)ccc3c2)cc1` [Example 1p, 1-Chloro-6-(4-hydroxyphenyl)-2-naphthol], in test [1], the “Regulation of metallothionein-II mRNA” value is on record as 6.0.

Regarding `Oc1ccc2cc(-c3ccc(O)c(Cl)c3)ccc2c1` [Example 1l, 6-(3-Chloro-4-hydroxyphenol)-2-naphthol], in test [1], the “Regulation of metallothionein-II mRNA” value was 5.5.
